Data set [1] relates to L. infantum promastigotes. The experiment in a line: Activity against Leishmania infantum promastigotes (resazurin assay). The note with it: for IC50: Leishmania infantum, promastigotes, 72 h, 95% CI in brackets. It counts as cell-based, Leishmania infantum (MHOM/MA/67/ITMAP-263). The protocol:
Promastigotes from the L. infantum strain (MHOM/MA/67/ITMAP-263) were cultivated in 5 ml of Schneider's insect medium, which was supplemented with 10% heat-inactivated fetal bovine serum (FBS), 200 U ml^−1 of penicillin/streptomycin, 6 μg ml^−1 of phenol red, and 5 mM of HEPES. The cultures were maintained in an incubator at 27 °C and diluted to a concentration of 2 × 10^5 cells per ml every 5 days. For the assays the parasites used were equivalent to late/log with two or three days of culture.
The efficacy of the compounds against L. infantum promastigotes was evaluated using a resazurin-based assay. Parasites were added to 100 μl of serial dilutions of the compounds in supplemented complete medium at a cell density of 5 × 10^5 ml^−1. As a quality control, a dose–response curve with the antileishmanial drug miltefosine was included in all assays. The final volume of each assay was 200 μl per well, and each condition was tested in duplicate. After a 72-hour incubation under specific conditions for each parasite, 20 μl of a 0.5 mM resazurin solution was added, and the plates were incubated for an additional 4 hours under the same conditions. Fluorescence was measured at 544 nm for excitation and 590 nm for emission using a Synergy 2 Multi-Mode Reader (Biotek, Winooski, VT, USA). Results were expressed as the percentage of parasite growth inhibition compared to controls (untreated parasites) and represent the average of at least three independent experiments. The effect was evaluated by determining the IC50 value (the concentration required to inhibit 50% growth), calculated using non-linear regression curves via GraphPad Prism version 8.1.1 for Windows (GraphPad Software, San Diego, CA, USA).
Background: Alamar Blue is a resazurin reagent that responds to reducing activity.

The test system of the next data set is L6 cells. The experiment in a line: Cytotoxic activity against rat skeletal myoblast L6 cells (Alamar Blue). It counts as cell-based. Conditions: 120 h, cytotoxicity, 5 days. As to the method: The cytotoxicity against mammalian cells was assessed using microtitre plates. Briefly, L6 cells (a rat skeletal muscle line) were seeded at 1 × 10^4 mL^−1 in 200 μL of RPMI-1640 growth medium (with 10% fetal calf serum) containing 7 different compound concentrations in a range previously established to encompass both the IC50 and IC90 values. The plates were incubated for 5 days at 37 °C and 20 μL Alamar Blue (Biosource Ltd, Wilton, North Yorkshire England.) was then added to each well. After an additional 8 hours incubation, the fluorescence was determined using a Gemini fluorescent plate reader (Molecular Devices). Inhibition of growth was calculated by comparison with control values and IC50 and IC90 values were determined in triplicate using linear regression analysis.

On to `O=C(Cc1ccc(C23CC4CC(CC(C4)C2)C3)cc1)NCCn1cnc([N+](=O)[O-])n1` [6b, 2-[4-(1-Adamantyl)phenyl]-N-[2-(3-nitro-1H-1,2,4-triazol-1-yl)ethyl]acetamide], for which the IC50 (usually the point on the concentration scale where inhibition reaches its midpoint) in data set [1] was determined as 0.49 µM; in the data set with L6 cells, 30 ± 2 µM.
Regarding `O=C(CCc1ccc(C23CC4CC(CC(C4)C2)C3)cc1)NCCn1cnc([N+](=O)[O-])n1` [6c, 3-[4-(1-Adamantyl)phenyl]-N-[2-(3-nitro-1H-1,2,4-triazol-1-yl)ethyl]propanamide], the results for the IC50 (in data set [1]; in the data set on L6 cells) were 0.42 µM and 23 ± 2 µM, respectively. In addition, the “SI (promastigotes) CC50/Li IC50” value in data set [1] (THP-1 CC50 / L. infantum promastigote IC50) is recorded as “SI > 238”.
Regarding `O=C(Cc1ccc(C23CC4CC(CC(C4)C2)C3)cc1)NCCCn1cnc([N+](=O)[O-])n1` [6e, 2-[4-(1-Adamantyl)phenyl]-N-[3-(3-nitro-1H-1,2,4-triazol-1-yl)propyl]acetamide], the IC50 is 0.31 µM in data set [1] and 23 ± 3 µM with L6 cells.

Values taken from article PMC12679539, “Synthesis and evaluation of nitroheterocyclic aromatic adamantane amides with trypanocidal activity. Part II” (RSC Medicinal Chemistry, 2025).
